From ChEMBL document CHEMBL1134446, “Polyamine analogue antidiarrheals: a structure-activity study” (J Med Chem, 2001)
Values joined by “and” are separate entries in the source; they are usually repeats but may differ in a detail not shown here. Equal values may be shown once.

Key:
[1] = The acute toxicity was determined in female CD1 mice after (ip) administration; assay type: functional; details: Mus musculus
[2] = The chronic toxicity was determined in female CD1 mice after (ip) administration; assay type: functional; details: Mus musculus
[3] = system: Canis familiaris; assay: Spermine Distribution in liver was determined after DESPM dosing of 1.87 mg/kg/day for 28 days in dog(cu dose-52.4) and sacrificed at 10 days PLD(cu dose-52.4 mg/kg); assay type: ADME, organism-based, Canis lupus familiaris; details: in vivo, 240 h
[4] = system: Canis familiaris; assay: Spermine Distribution in liver was determined after DESPM dosing of 4 mg/kg/day for 13 days in dog(cu dose-52.4) and sacrificed at 10 days PLD(cu dose-52 mg/kg); assay type: ADME, organism-based, Canis lupus familiaris; details: in vivo, 240 h
[5] = system: Canis familiaris; assay: Spermine Distribution in liver was determined after DESPM dosing of 6.0 mg/kg/day for 4.5 days in dog(cu dose-52.4) and sacrificed at 10 days PLD(cu dose-27 mg/kg); assay type: ADME, organism-based, Canis lupus familiaris; details: in vivo, 240 h
[6] = system: Canis familiaris; assay: putrescine Distribution in liver was determined after DESPM dosing of 6.0 mg/kg/day for 4.5 days in dog(cu dose-52.4) and sacrificed at 10 days PLD(cu dose-27 mg/kg); assay type: ADME, organism-based, Canis lupus familiaris; details: in vivo, 240 h
[7] = system: Canis familiaris; assay: putrescine Distribution in liver was determined after DESPM dosing of 8.0 mg/kg/day for 4.5 days in dog(cu dose-52.4) and sacrificed at 75 days PLD(cu dose-36 mg/kg); assay type: ADME, organism-based, Canis lupus familiaris; details: in vivo, 1800 h
[8] = system: Canis familiaris; assay: Spermidine Distribution in liver was determined after DESPM dosing of 4 mg/kg/day for 13 days in dog(cu dose-52.4) and sacrificed at 75 days PLD(cu dose-52 mg/kg); assay type: ADME, organism-based, Canis lupus familiaris; details: in vivo, 1800 h
[9] = system: Canis familiaris; assay: Spermidine Distribution in liver was determined after DESPM dosing of 6.0 mg/kg/day for 4.5 days in dog(cu dose-52.4) and sacrificed at 10 days PLD(cu dose-27 mg/kg); assay type: ADME, organism-based, Canis lupus familiaris; details: in vivo, 240 h
[10] = system: Canis familiaris; assay: Spermidine Distribution in kidney was determined after DESPM dosing of 6.0 mg/kg/day for 4.5 days in dog(cu dose-52.4) and sacrificed at 75 days PLD(cu dose-27 mg/kg); assay type: ADME, organism-based, Canis lupus familiaris; details: in vivo, 1800 h
[11] = system: Canis familiaris; assay: Spermidine Distribution in kidney was determined after DESPM dosing of 8.0 mg/kg/day for 4.5 days in dog(cu dose-52.4) and sacrificed at 10 days PLD(cu dose-36 mg/kg); assay type: ADME, organism-based, Canis lupus familiaris; details: in vivo, 240 h
[12] = system: Canis familiaris; assay: Spermidine Distribution in kidney was determined after DESPM dosing of 8.0 mg/kg/day for 4.5 days in dog(cu dose-52.4) and sacrificed at 75 days PLD(cu dose-36 mg/kg); assay type: ADME, organism-based, Canis lupus familiaris; details: in vivo, 1800 h
[13] = system: Canis familiaris; assay: MESPM/MEHSPH Distribution in kidney was determined after DESPM dosing of 6.0 mg/kg/day for 4.5 days in dog(cu dose-52.4) and sacrificed at 10 days PLD(cu dose-27 mg/kg); assay type: ADME, organism-based, Canis lupus familiaris; details: in vivo, 240 h
[14] = system: Canis familiaris; assay: MESPM/MEHSPH Distribution in kidney was determined after DESPM dosing of 8.0 mg/kg/day for 4.5 days in dog(cu dose-52.4) and sacrificed at 10 days PLD(cu dose-36 mg/kg); assay type: ADME, organism-based, Canis lupus familiaris; details: in vivo, 240 h
[15] = system: Canis familiaris; assay: MESPM/MEHSPH Distribution in liver was determined after DESPM dosing of 1.87 mg/kg/day for 28 days in dog(cu dose-52.4) and sacrificed at 10 days PLD(cu dose-52.4 mg/kg); assay type: ADME, organism-based, Canis lupus familiaris; details: in vivo, 240 h
[16] = system: Canis familiaris; assay: MESPM/MEHSPH Distribution in liver was determined after DESPM dosing of 1.87 mg/kg/day for 28 days in dog(cu dose-52.4) and sacrificed at 75 days PLD(cu dose-52.4 mg/kg); assay type: ADME, organism-based, Canis lupus familiaris; details: in vivo, 1800 h
[17] = system: Rattus norvegicus; assay: Percent reduction was determined by using the ratio of mean of treated animal to that of control animal at a dose of 9.4 mg/kg; assay type: functional
[18] = system: Canis familiaris; assay: putrescine Distribution in liver was determined after DEHSPM dosing of 2.0 mg/kg/day for 29 days in dog(cu dose-52.4) and sacrificed at 10 days PLD(cu dose-58 mg/kg); assay type: ADME, organism-based, Canis lupus familiaris; details: in vivo, 240 h
[19] = system: Canis familiaris; assay: Spermidine Distribution in liver was determined after DEHSPM dosing of 2.0 mg/kg/day for 29 days in dog(cu dose-52.4) and sacrificed at 10 days PLD(cu dose-58 mg/kg); assay type: ADME, organism-based, Canis lupus familiaris; details: in vivo, 240 h
[20] = system: Canis familiaris; assay: putrescine putrescine Distribution in kidney was determined after DEHSPM dosing of 2.0 mg/kg/day for 29 days in dog(cu dose-52.4) and sacrificed at 10 days PLD(cu dose-58 mg/kg); assay type: ADME, organism-based, Canis lupus familiaris; details: in vivo, 240 h
[21] = system: Canis familiaris; assay: Spermidine Distribution in kidney was determined after DEHSPM dosing of 2.0 mg/kg/day for 29 days in dog(cu dose-52.4) and sacrificed at 10 days PLD(cu dose-58 mg/kg); assay type: ADME, organism-based, Canis lupus familiaris; details: in vivo, 240 h
[22] = system: Canis familiaris; assay: putrescine Distribution in kidney was determined after DEHSPM dosing of 2.0 mg/kg/day for 29 days in dog(cu dose-52.4) and sacrificed at 10 days PLD(cu dose-22 mg/kg); assay type: ADME, organism-based, Canis lupus familiaris; details: in vivo, 240 h
[23] = system: Canis familiaris; assay: Spermine Distribution in kidney was determined after DEHSPM dosing of 2.0 mg/kg/day for 29 days in dog(cu dose-52.4) and sacrificed at 10 days PLD(cu dose-58 mg/kg); assay type: ADME, organism-based, Canis lupus familiaris; details: in vivo, 240 h
[24] = system: Canis familiaris; assay: Distribution in liver was determined after DESPM dosing of 6.0 mg/kg/day for 4.5 days in dog(cu dose-52.4) and sacrificed at 75 days PLD(cu dose-27 mg/kg); assay type: ADME, organism-based, Canis lupus familiaris; details: in vivo, 1800 h
[25] = system: Canis familiaris; assay: Distribution in liver was determined after DESPM dosing of 8.0 mg/kg/day for 4.5 days in dog(cu dose-52.4) and sacrificed at 75 days PLD(cu dose-36 mg/kg); assay type: ADME, organism-based, Canis lupus familiaris; details: in vivo, 1800 h
[26] = system: Canis familiaris; assay: HSPM Distribution in kidney was determined after DEHSPM dosing of 2.0 mg/kg/day for 29 days in dog(cu dose-52.4) and sacrificed at 10 days PLD(cu dose-22 mg/kg); assay type: ADME, organism-based, Canis lupus familiaris; details: in vivo, 240 h
[27] = system: Canis familiaris; assay: HSPM Distribution in kidney was determined after DEHSPM dosing of 2.0 mg/kg/day for 29 days in dog(cu dose-52.4) and sacrificed at 10 days PLD(cu dose-58 mg/kg); assay type: ADME, organism-based, Canis lupus familiaris; details: in vivo, 240 h
[28] = system: Canis familiaris; assay: HSPM Distribution in liver was determined after DEHSPM dosing of 2.0 mg/kg/day for 29 days in dog(cu dose-52.4) and sacrificed at 10 days PLD(cu dose-22 mg/kg); assay type: ADME, organism-based, Canis lupus familiaris; details: in vivo, 240 h
[29] = system: Canis familiaris; assay: MESPM/MEHSPH Distribution in kidney was determined after DEHSPM dosing of 2.0 mg/kg/day for 29 days in dog(cu dose-52.4) and sacrificed at 10 days PLD(cu dose-58 mg/kg); assay type: ADME, organism-based, Canis lupus familiaris; details: in vivo, 240 h
[30] = system: Canis familiaris; assay: MESPM/MEHSPH Distribution in liver was determined after DEHSPM dosing of 2.0 mg/kg/day for 29 days in dog(cu dose-52.4) and sacrificed at 10 days PLD(cu dose-58 mg/kg); assay type: ADME, organism-based, Canis lupus familiaris; details: in vivo, 240 h
[31] = system: Canis familiaris; assay: Distribution in kidney was determined after DESPM dosing of 4 mg/kg/day for 13 days in dog(cu dose-52.4) and sacrificed at 10 days PLD(cu dose-52 mg/kg); assay type: ADME, organism-based, Canis lupus familiaris; details: in vivo, 240 h
[32] = system: Canis familiaris; assay: Distribution in kidney was determined after DESPM dosing of 6.0 mg/kg/day for 4.5 days in dog(cu dose-52.4) and sacrificed at 75 days PLD(cu dose-27 mg/kg); assay type: ADME, organism-based, Canis lupus familiaris; details: in vivo, 1800 h

CCNCCCNCCCCNCCCNCC [BIS(ETHYL)SPERMINE]
LD50 [1]: 400 mg/kg | LD50 [2]: 80 mg/kg | Wet weight of tissue [3]: 850 nM/g | Wet weight of tissue [4]: 462 nM/g | Wet weight of tissue [5]: 848 nM/g | Wet weight of tissue [6]: 87 nM/g | Wet weight of tissue [7]: 56 nM/g | Wet weight of tissue [8]: 264 nM/g | Wet weight of tissue [9]: 181 nM/g | Wet weight of tissue [10]: 90 nM/g | Wet weight of tissue [11]: 66 nM/g | Wet weight of tissue [12]: 80 nM/g | Wet weight of tissue [13]: 10 nM/g | Wet weight of tissue [14]: 12 nM/g | Wet weight of tissue [15]: 7 nM/g | Wet weight of tissue [16]: 0 nM/g | Reduction [17]: 55% and 92%

CCNCCCCNCCCCNCCCCNCC [DIETHYLHOMOSPERMINE]
LD50 [1]: 300 mg/kg | LD50 [2]: 38 mg/kg | Wet weight of tissue [18]: 19 nM/g | Wet weight of tissue [19]: 50 nM/g | Wet weight of tissue [20]: 5 nM/g | Wet weight of tissue [21]: 41 nM/g | Wet weight of tissue [22]: 0 nM/g | Wet weight of tissue [23]: 275 nM/g | Wet weight of tissue [24]: 0 nM/g | Wet weight of tissue [25]: 0 nM/g | Wet weight of tissue [26]: 43 nM/g | Wet weight of tissue [27]: 269 nM/g | Wet weight of tissue [28]: 668 nM/g | Wet weight of tissue [29]: 78 nM/g | Wet weight of tissue [30]: 72 nM/g | Wet weight of tissue [31]: 46 nM/g | Wet weight of tissue [32]: 0 nM/g
